# Measured values as given in PubChem BioAssay AID1918993 (Molecular Pharmacology Branch, DTP, NCI, 2023).
# Test system: 233499-124-R-J3-PDC complex spheroid growth
# Assay: Anticancer human tumor 233499-124-R-J3-PDC patient-derived colon adenocarcinoma cell line growth inhibition [AhR]
# Conditions: for IC50: curve of first compound; for viability, T/C: stronger effect = lower value
# In short: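 Agents were dosed in half-log steps down from roughly clinical Cmax, or from 10 microM where Cmax was unknown, alone and with AhR antagonists. Read-out: percent test/control growth of tumor spheroids containing HUVEC and MSC stromal cells.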
# [1] = second compound 0.1 µM, first compound 0.00949 µM
# [2] = second compound 0.1 µM, first compound 0.03 µM
# [3] = second compound 0.1 µM, first compound 0.0949 µM
# [4] = second compound 0.1 µM, first compound 0.3 µM
# [5] = second compound 0.316 µM, first compound 0.00949 µM
# [6] = second compound 0.316 µM, first compound 0.03 µM
# [7] = second compound 0.316 µM, first compound 0.0949 µM
# [8] = second compound 0.316 µM, first compound 0.3 µM
# [9] = second compound 1 µM, first compound 0.00949 µM
# [10] = second compound 1 µM, first compound 0.03 µM
# [11] = second compound 1 µM, first compound 0.0949 µM
# [12] = second compound 1 µM, first compound 0.3 µM
# [13] = second compound 3.16 µM, first compound 0.00949 µM
# [14] = second compound 3.16 µM, first compound 0.03 µM
# [15] = second compound 3.16 µM, first compound 0.0949 µM
# [16] = second compound 3.16 µM, first compound 0.3 µM
# [17] = second compound 10 µM, first compound 0.00949 µM
# [18] = second compound 10 µM, first compound 0.03 µM
# [19] = second compound 10 µM, first compound 0.0949 µM
# [20] = second compound 10 µM, first compound 0.3 µM
# 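Note: spheroids exposed to agents for seven days before reading.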
smiles,measurement,setting,value
CCN(c1cc(-c2ccc(CN3CCOCC3)cc2)cc(C(=O)NCc2c(C)cc(C)[nH]c2=O)c1C)C1CCOCC1 + CC(CO)NC(=O)c1cc(-c2ccc(Cl)cc2)nn(-c2cnn(C)c2)c1=O,IC50,second compound 0.1 µM,> 3000 nM
same,IC50,second compound 0.316 µM,> 3000 nM
same,IC50,second compound 1 µM,> 3000 nM
same,IC50,second compound 3.16 µM,> 3000 nM
same,IC50,second compound 10 µM,> 3000 nM
same,"viability, T/C",[1],100%
same,"viability, T/C",[2],86.8%
same,"viability, T/C",[3],88.2%
same,"viability, T/C",[4],82.9%
same,"viability, T/C","second compound 0.1 µM, first compound 0.949 µM",93.5%
same,"viability, T/C","second compound 0.1 µM, first compound 3 µM",94.3%
same,"viability, T/C",[5],103%
same,"viability, T/C",[6],98.6%
same,"viability, T/C",[7],94.9%
same,"viability, T/C",[8],85.6%
same,"viability, T/C","second compound 0.316 µM, first compound 0.949 µM",99.9%
same,"viability, T/C","second compound 0.316 µM, first compound 3 µM",83.8%
same,"viability, T/C",[9],95.6%
same,"viability, T/C",[10],96.1%
same,"viability, T/C",[11],91%
same,"viability, T/C",[12],95.4%
same,"viability, T/C","second compound 1 µM, first compound 0.949 µM",88.4%
same,"viability, T/C","second compound 1 µM, first compound 3 µM",90.2%
same,"viability, T/C",[13],88%
same,"viability, T/C",[14],82%
same,"viability, T/C",[15],85.6%
same,"viability, T/C",[16],91.9%
same,"viability, T/C","second compound 3.16 µM, first compound 0.949 µM",98.7%
same,"viability, T/C","second compound 3.16 µM, first compound 3 µM",86.6%
same,"viability, T/C",[17],80.9%
same,"viability, T/C",[18],77.2%
same,"viability, T/C",[19],79.7%
same,"viability, T/C",[20],82.5%
same,"viability, T/C","second compound 10 µM, first compound 0.949 µM",73.5%
same,"viability, T/C","second compound 10 µM, first compound 3 µM",83.1%
CC(C)CC(NC(=O)C(Cc1ccccc1)NC(=O)c1cnccn1)B(O)O (stereo not given) + Cc1ccccc1N=Nc1ccc(NC(=O)c2ccnn2C)c(C)c1,IC50,second compound 0.1 µM,16.3 nM
same,IC50,second compound 0.316 µM,16.5 nM
same,IC50,second compound 1 µM,18.2 nM
same,IC50,second compound 3.16 µM,15.6 nM
same,IC50,second compound 10 µM,17.3 nM
same,"viability, T/C","second compound 0.1 µM, first compound 0.000949 µM",103%
same,"viability, T/C","second compound 0.1 µM, first compound 0.003 µM",110%
same,"viability, T/C",[1],94.1%
same,"viability, T/C",[2],0.26%
same,"viability, T/C",[3],0.06%
same,"viability, T/C",[4],0.13%
same,"viability, T/C","second compound 0.316 µM, first compound 0.000949 µM",99.4%
same,"viability, T/C","second compound 0.316 µM, first compound 0.003 µM",108%
same,"viability, T/C",[5],94.5%
same,"viability, T/C",[6],1.73%
same,"viability, T/C",[7],0.06%
same,"viability, T/C",[8],0.13%
same,"viability, T/C","second compound 1 µM, first compound 0.000949 µM",111%
same,"viability, T/C","second compound 1 µM, first compound 0.003 µM",110%
same,"viability, T/C",[9],98.1%
same,"viability, T/C",[10],12.9%
same,"viability, T/C",[11],0.64%
same,"viability, T/C",[12],0.14%
same,"viability, T/C","second compound 3.16 µM, first compound 0.000949 µM",111%
same,"viability, T/C","second compound 3.16 µM, first compound 0.003 µM",96.9%
same,"viability, T/C",[13],83.8%
same,"viability, T/C",[14],5.62%
same,"viability, T/C",[15],0.09%
same,"viability, T/C",[16],0.14%
same,"viability, T/C","second compound 10 µM, first compound 0.000949 µM",106%
same,"viability, T/C","second compound 10 µM, first compound 0.003 µM",108%
same,"viability, T/C",[17],105%
same,"viability, T/C",[18],0.37%
same,"viability, T/C",[19],0.18%
same,"viability, T/C",[20],0.22%
Nc1ccn(C2OC(CO)C(O)C2(F)F)c(=O)n1 (stereo not given) + CC(CO)NC(=O)c1cc(-c2ccc(Cl)cc2)nn(-c2cnn(C)c2)c1=O,IC50,second compound 0.1 µM,136 nM
same,IC50,second compound 0.316 µM,113 nM
same,IC50,second compound 1 µM,149 nM
same,IC50,second compound 3.16 µM,202 nM
same,IC50,second compound 10 µM,130 nM
same,"viability, T/C","second compound 0.1 µM, first compound 0.0316 µM",58.7%
same,"viability, T/C","second compound 0.1 µM, first compound 0.1 µM",58.9%
same,"viability, T/C","second compound 0.1 µM, first compound 0.316 µM",18.6%
same,"viability, T/C","second compound 0.1 µM, first compound 1 µM",30.1%
same,"viability, T/C","second compound 0.1 µM, first compound 3.16 µM",24.2%
same,"viability, T/C","second compound 0.1 µM, first compound 10 µM",29.7%
same,"viability, T/C","second compound 0.316 µM, first compound 0.0316 µM",50%
same,"viability, T/C","second compound 0.316 µM, first compound 0.1 µM",54%
same,"viability, T/C","second compound 0.316 µM, first compound 0.316 µM",33.6%
same,"viability, T/C","second compound 0.316 µM, first compound 1 µM",35%
same,"viability, T/C","second compound 0.316 µM, first compound 3.16 µM",29.3%
same,"viability, T/C","second compound 0.316 µM, first compound 10 µM",35.9%
same,"viability, T/C","second compound 1 µM, first compound 0.0316 µM",61%
same,"viability, T/C","second compound 1 µM, first compound 0.1 µM",57.8%
same,"viability, T/C","second compound 1 µM, first compound 0.316 µM",35.3%
same,"viability, T/C","second compound 1 µM, first compound 1 µM",37.7%
same,"viability, T/C","second compound 1 µM, first compound 3.16 µM",28.4%
same,"viability, T/C","second compound 1 µM, first compound 10 µM",36.1%
same,"viability, T/C","second compound 3.16 µM, first compound 0.0316 µM",65%
same,"viability, T/C","second compound 3.16 µM, first compound 0.1 µM",69.7%
same,"viability, T/C","second compound 3.16 µM, first compound 0.316 µM",38.9%
same,"viability, T/C","second compound 3.16 µM, first compound 1 µM",31.4%
same,"viability, T/C","second compound 3.16 µM, first compound 3.16 µM",37.9%
same,"viability, T/C","second compound 3.16 µM, first compound 10 µM",42.4%
same,"viability, T/C","second compound 10 µM, first compound 0.0316 µM",60.6%
same,"viability, T/C","second compound 10 µM, first compound 0.1 µM",54.1%
same,"viability, T/C","second compound 10 µM, first compound 0.316 µM",32.1%
same,"viability, T/C","second compound 10 µM, first compound 1 µM",31.3%
same,"viability, T/C","second compound 10 µM, first compound 3.16 µM",51.9%
same,"viability, T/C","second compound 10 µM, first compound 10 µM",30.1%
